In general, pIC50 refers to the IC50 on a negative log10 scale, so that one unit is a factor of ten.

The text below walks through data of patent US10287301B2 (Achillion Pharmaceuticals, Inc., priority 2015, dated 2019).

For this assay, the target named is Human Factor D (Homo sapiens (Human), UniProt P00746). Description: Human Factor D Assay. Format: biochemical. On the procedure:
Human Factor D (purified from human serum, Complement Technology, Inc.) at 80 nM final concentration was incubated with test compound at various concentrations for 5 minutes at room temperature in 50 mM Tris, 1M NaCl, pH 7.5. A synthetic substrate Z-L-Lys-SBzl and DTNB (Ellman's reagent) are added to final concentrations of 100 μM each. […] IC50 values are calculated by nonlinear regression of complement Factor D reaction rates as a function of test compound concentration.

Setting [1] is: Table 3, Human Factor D 80 nM, substrate Z-L-Lys-SBzl, read-out: IC50 (Stars).
[2] abbreviates: Human Factor D assay of Example 8, Table 2, read-out: IC50.
Setting [3] is: Human Factor D, Table 3, read-out: IC50.
Where [4] appears, read: Human Factor D 80 nM, substrate Z-L-Lys-SBzl, read-out: IC50.

pIC50: −log10 of the molar value. Where two headings read alike, the source gives them in different places.

Human Factor D, sequence (P00746 26-253): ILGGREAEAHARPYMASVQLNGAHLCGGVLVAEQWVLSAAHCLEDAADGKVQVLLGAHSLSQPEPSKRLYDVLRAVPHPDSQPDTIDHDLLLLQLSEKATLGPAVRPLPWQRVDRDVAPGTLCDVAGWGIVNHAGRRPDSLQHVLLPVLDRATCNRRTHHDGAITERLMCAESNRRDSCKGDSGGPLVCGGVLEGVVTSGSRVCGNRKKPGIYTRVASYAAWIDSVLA

Regarding `CC(=O)c1nn(CC(=O)N2C[C@H](F)[C@@H](N)[C@H]2C(=O)Nc2cccc(Br)n2)c2ccc(-c3cnc(C)nc3)cc12` [Compound 427, (2S,3S,4S)-1-(2-(3-Acetyl-5-(2-methylpyrimidin-5-yl)-1H-indazol-1-yl)acetyl)-3-amino-N-(6-bromopyridin-2-yl)-4-fluoropyrrolidine-2-carboxamide], the pIC50 under setting [1] was above 6.00. As for `CC(=O)c1nn(CC(=O)N2C[C@H](F)C[C@H]2C(=O)Nc2cncc(Cl)n2)c2ccc(-c3cnc(C)nc3)cc12` [Compound 368, (2S,4R)-1-(2-(3-Acetyl-5-(2-methylpyrimidin-5-yl)-1H-indazol-1-yl)acetyl)-N-(6-chloropyrazin-2-yl)-4-fluoropyrrolidine-2-carboxamide], the pIC50 under setting [1] was above 6.00.

As for `Cc1cccc(C[C@H](O)[C@@H]2C[C@@H](F)CN2C(=O)Cn2cc(C(N)=O)c3cc(-c4cnc(C)nc4)ccc32)n1` [Compound 455, 1-(2-((2S,4R)-4-fluoro-2-((S)-1-hydroxy-2-(6-methylpyridin-2-yl)ethyl)pyrrolidin-1-yl)-2-oxoethyl)-5-(2-methylpyrimidin-5-yl)-1H-indole-3-carboxamide], the negative-log IC50 (pIC50) under setting [1] is below 5.00.

As for `CC(=O)c1cn(CC(=O)N2C[C@H](F)C[C@H]2C(=O)Nc2cccc(-c3ccccc3Cl)c2F)c2ccc(-c3cnc(C)c(Cl)c3)cc12` [Compound 207, (2S,4R)-1-(2-(3-acetyl-5-(5-chloro-6-methylpyridin-3-yl)-1H-indol-1-yl)acetyl)-N-(2′-chloro-2-fluorobiphenyl-3-yl)-4-fluoropyrrolidine-2-carboxamide], the pIC50 under setting [2] was above 6.00.

For `CC(=O)c1nn(CC(=O)N2C[C@H](F)C[C@H]2C(=O)NC[C@@H]2CCN(C)C2)c2ccc(-c3cnc(C)nc3)cc12` [Compound 568, (2S,4R)-1-(2-(3-Acetyl-5-(2-methylpyrimidin-5-yl)-1H-indazol-1-yl)acetyl)-4-fluoro-N—(((S)-1-methylpyrrolidin-3-yl)methyl)pyrrolidine-2-carboxamide], under setting [3], the pIC50 is below 5.00. `CC(=O)c1nn(CC(=O)N2[C@@H]3C[C@@H]3C[C@H]2C(=O)Nc2cncc(Br)n2)c2ccc(-c3cnc(N)nc3)cc12` [Compound 352, (1R,3S,5R)-2-(2-(3-Acetyl-5-(2-aminopyrimidin-5-yl)-1H-indazol-1-yl)acetyl)-N-(6-bromopyrazin-2-yl)-2-azabicyclo[3.1.0]hexane-3-carboxamide]: under setting [1], the negative logarithm of the IC50 (pIC50) is above 6.00.

Regarding `CC(=O)c1nn(CC(=O)N2C[C@H](F)C[C@H]2c2nc(-c3cccc(Br)n3)c[nH]2)c2ccc(-c3cnc(C)nc3)cc12` [Compound 469, 2-(3-acetyl-5-(2-Methylpyrimidin-5-yl)-1H-indazol-1-yl)-1-((2S,4R)-2-(4-(6-bromopyridin-2-yl)-1H-imidazol-2-yl)-4-fluoropyrrolidin-1-yl)ethan-1-one], under setting [1], the negative logarithm of the IC50 (pIC50) is above 6.00. As for `NC(=O)c1nn(CC(=O)N2C[C@H](F)C[C@H]2C(=O)Nc2cccc(Cl)c2C(F)(F)F)c2ccc(-c3ccnnc3)cc12` [Compound 93, 1-(2-((2S,4R)-2-(3-chloro-2-(trifluoromethyl)phenylcarbamoyl)-4-fluoropyrrolidin-1-yl)-2-oxoethyl)-5-(pyridazin-4-yl)-1H-indazole-3-carboxamide], the pIC50 under setting [4] is below 5.00. As to `CC(=O)c1nn(CC(=O)N2C[C@H](F)C[C@H]2C(=O)Nc2cccc(Br)n2)c2ccc(-c3cnn4ccnc4c3)cc12` [Compound 304, (2S,4R)-1-(2-(3-acetyl-5-(imidazo[1,2-b]pyridazin-7-yl)-1H-indazol-1-yl)acetyl)-N-(6-bromopyridin-2-yl)-4-fluoropyrrolidine-2-carboxamide], the pIC50 under setting [2] was above 6.00.

For the compound `CC(=O)c1cn(CC(=O)N2C[C@H](F)C[C@H]2C(=O)Nc2nc(-c3ccc4c(c3)CCCC4)cs2)c2ccc(-c3ccnnc3)cc12` [Compound 54, (2S,4R)-1-(2-(3-acetyl-5-(pyridazin-4-yl)-1H-indol-1-yl)acetyl)-4-fluoro-N-(4-(5,6,7,8-tetrahydro-naphthalen-2-yl)thiazol-2-yl)pyrrolidine-2-carboxamide], the pIC50 under setting [4] is below 5.00. On to `CC(=O)c1cn(CC(=O)N2C[C@H](F)C[C@H]2C(=O)Nc2cccc(-c3ccccc3Cl)c2F)c2ccc(-c3ccc(C)nc3)cc12` [Compound 151, (2S,4R)-1-(2-(3-acetyl-5-(6-methylpyridin-3-yl)-1H-indol-1-yl)acetyl)-N-(2′-chloro-2-fluorobiphenyl-3-yl)-4-fluoropyrrolidine-2-carboxamide], for which the pIC50 under setting [4] was above 6.00. On to `CC(=O)NCc1ncc(-c2ccc3c(c2)c(C(C)=O)nn3CC(=O)N2C[C@H](F)C[C@H]2C(=O)Nc2cccc(Br)n2)cn1` [Compound 406, (2S,4R)-1-(2-(5-(2-(Acetamidomethyl)pyrimidin-5-yl)-3-acetyl-1H-indazol-1-yl)acetyl)-N-(6-bromopyridin-2-yl)-4-fluoropyrrolidine-2-carboxamide], for which the pIC50 under setting [1] is above 6.00.

With `CC(=O)c1nn(CC(=O)N2C[C@H](F)C[C@H]2C(=O)Nc2cccc(C3CC3)n2)c2ccc(-c3cnc(C)nc3)cc12` [Compound 576, (2S,4R)-1-(2-(3-Acetyl-5-(2-methylpyrimidin-5-yl)-1H-indazol-1-yl)acetyl)-N-(6-cyclopropylpyridin-2-yl)-4-fluoropyrrolidine-2-carboxamide], under setting [3], the pIC50 is above 6.00. `CC(=O)c1cn(CC(=O)N2C[C@H](F)C[C@H]2C(=O)Nc2ccc3c(c2)OC(C)(C)C3)c2ccc(-c3ccnnc3)cc12` [Compound 75, (2S,4R)-1-(2-(3-acetyl-5-(pyridazin-4-yl)-1H-indol-1-yl)acetyl)-N-(2,2-dimethyl-2,3-dihydrobenzofuran-6-yl)-4-fluoropyrrolidine-2-carboxamide]: the pIC50 under setting [4] is above 6.00. Same read-out and setting: to `CC(=O)c1cn(CC(=O)N2C[C@H](F)C[C@H]2C(=O)Nc2cccc(Br)n2)c2ccc(-c3cncnc3)cc12` [Compound 14, (2S,4R)-1-(2-(3-acetyl-5-(pyrimidin-5-yl)-1H-indol-1-yl)acetyl)-N-(6-bromopyridin-2-yl)-4-fluoropyrrolidine-2-carboxamide] belongs above 6.00. As to `CC(=O)c1nn(CC(=O)N2C[C@H](F)C[C@H]2C(=O)Nc2cccc(Br)c2Cl)c2ccc(-c3cnc(C)nc3)cc12` [Compound 358, (2S,4R)-1-(2-(3-Acetyl-5-(2-methylpyrimidin-5-yl)-1H-indazol-1-yl)acetyl)-N-(3-bromo-2-chlorophenyl)-4-fluoropyrrolidine-2-carboxamide], the pIC50 under setting [1] is above 6.00.

On to `CC(=O)c1nn(CC(=O)N2[C@@H](C)CC[C@H]2C(=O)Nc2nc(Br)ccc2C)c2ccc(-c3cnc(C)nc3)cc12` [Compound 646, (2S,5S)-1-(2-(3-Acetyl-5-(2-methylpyrimidin-5-yl)-1H-indazol-1-yl)acetyl)-N-(6-bromo-3-methylpyridin-2-yl)-5-methylpyrrolidine-2-carboxamide], for which, under setting [3], the pIC50 was above 6.00. As to `NCc1ccc(NC(=O)[C@@H]2C[C@@H](F)CN2C(=O)Cn2nc(C(N)=O)c3cc(-c4ccnnc4)ccc32)cc1` [Compound 70, 1-(2-((2S,4R)-2-(4-(aminomethyl)phenylcarbamoyl)-4-fluoropyrrolidin-1-yl)-2-oxoethyl)-5-(pyridazin-4-yl)-1H-indazole-3-carboxamide], the pIC50 under setting [4] is below 5.00. Regarding `COCCOCCOCCOCCOCCOc1ncc(-c2ccc3c(c2)c(C(C)=O)nn3CC(=O)N2C[C@H](F)C[C@H]2C(=O)Nc2cccc(Br)n2)cn1` [Compound 316], the negative logarithm of the IC50 (pIC50) under setting [2] was above 6.00.
